From PubChem BioAssay (NCI)
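Cultured in 96-well plates, cells were exposed to test compound for 48 hours across five concentrations. Abbreviation: GI50, concentration required for 50% inhibition of growth. TGI is the concentration that stops growth completely.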

Assays:
Assay in all cases: growth of human tumour cells (NCI), 48 h
RPMI-8226 leukemia = system: RPMI-8226 leukemia
SF-295 CNS = system: SF-295 CNS
SNB-75 CNS = system: SNB-75 CNS
OVCAR-8 ovarian = system: OVCAR-8 ovarian
SK-MEL-28 melanoma = system: SK-MEL-28 melanoma
K-562 leukemia = system: K-562 leukemia
UACC-257 melanoma = system: UACC-257 melanoma
HCT-15 colon = system: HCT-15 colon
UO-31 renal = system: UO-31 renal
MOLT-4 leukemia = system: MOLT-4 leukemia

| SMILES | TGI (RPMI-8226 leukemia) [µM] | TGI (SF-295 CNS) [µM] | TGI (SNB-75 CNS) [µM] | TGI (OVCAR-8 ovarian) [µM] | TGI (SK-MEL-28 melanoma) [µM] | TGI (K-562 leukemia) [µM] | TGI (UACC-257 melanoma) [µM] | TGI (HCT-15 colon) [µM] | TGI (UO-31 renal) [µM] | TGI (MOLT-4 leukemia) [µM] | GI50 (RPMI-8226 leukemia) [µM] | GI50 (SF-295 CNS) [µM] | GI50 (SNB-75 CNS) [µM] | GI50 (OVCAR-8 ovarian) [µM] | GI50 (SK-MEL-28 melanoma) [µM] | GI50 (K-562 leukemia) [µM] | GI50 (UACC-257 melanoma) [µM] | GI50 (HCT-15 colon) [µM] | GI50 (UO-31 renal) [µM] | GI50 (MOLT-4 leukemia) [µM] |
| --- | --- | --- | --- | --- | --- | --- | --- | --- | --- | --- | --- | --- | --- | --- | --- | --- | --- | --- | --- | --- |
| c1cc(C[S+]2CCCC2)ccc1C[S+]1CCCC1 | > 100 | > 100 | > 100 | > 100 | > 100 | > 100 | > 100 | > 100 | > 100 | > 100 | – | – | – | – | – | – | – | – | – | – |
| N#CCCN(CCC#N)c1ccc(/C=C2\N=C(COc3ccc(Cl)cc3Cl)OC2=O)cc1 | > 100 | > 100 | > 100 | > 100 | > 100 | > 100 | > 100 | > 100 | > 100 | > 100 | – | – | – | – | – | – | – | – | – | – |
| CC(=N\O)/C(C)=N/O.CC(=N\O)/C(C)=N/O.CC(=N\O)/C(C)=N/O.CC(=N\O)/C(C)=N/O.[Cu].[Cu] | 63.7 | 37.9 | 31.8 | 38.3 | 35.4 | 91.9 | 34.5 | 42.1 | 27.3 | 47.4 | 27.1 | 19.9 | 17.1 | 20.3 | 18.8 | 34.3 | 20.2 | 20.6 | 13.4 | 19.9 |
| Cc1ccc(C(=O)O/N=C2/CCCCC2CN(C)C)cc1 (configuration not stated) | > 100 | > 100 | > 100 | > 100 | > 100 | > 100 | > 100 | > 100 | > 100 | > 100 | – | – | – | – | – | – | – | – | – | – |
| NC(=O)C(Br)CBr (configuration not stated) | 11.9 | 35.2 | 19.9 | 4.44 | 3.29 | 5.29 | 3.27 | 3.39 | 12.7 | 4.15 | 2.82 | 14.7 | 5.3 | 1.8 | 1.69 | 1.38 | 1.64 | 1.46 | 2.55 | 1.42 |
| COc1cc2c(cc1OCCCOC1=C=C=C(c3ccc4c(c3)c3cc(-c5ccc(OCCCOc6cc7c(cc6OC)C(=O)N6CCC[C@H]6C=N7)cc5)ccc3n4S(=O)(=O)c3ccc(C)cc3)C=C1)N=C[C@@H]1CCCN1C2=O | > 14.5 | 4.62 | 5.33 | > 17 | 4.97 | > 18.6 | 15.6 | 20.3 | 11.4 | > 50 | 0.665 | 1.14 | 1.03 | 1.54 | 1.86 | 1.06 | 6.71 | 7 | 3.21 | 0.739 |
| COC(=O)Nc1nc2ccc(Oc3ccc(NC(=O)Nc4cccc(Br)c4)cc3)cc2[nH]1 | > 25 | > 19.2 | 6.13 | > 20 | 7.7 | > 12 | > 16 | > 25 | > 25 | > 15.4 | 8.24 | 1.18 | 0.781 | 4.32 | 2.53 | 0.162 | 1.95 | 2.3 | > 16.6 | 4.03 |
| CN(C)c1ccc(C(=O)c2ccc(N(C)C)c(N)c2)cc1N | > 100 | 33.4 | > 23.6 | > 100 | > 100 | > 86.5 | > 100 | > 100 | > 67.7 | > 57.6 | 1.33 | 2.03 | 1.05 | 8.99 | 12.8 | 0.867 | > 100 | 2.35 | 4.02 | 2.76 |
| CCN(CC)c1ccc(N=C2C=C(C(=O)Nc3ccc(S(C)(=O)=O)cc3)C(=O)c3ccccc32)c(C)c1 | > 100 | 39.5 | > 100 | > 100 | > 100 | > 100 | > 100 | > 100 | > 100 | > 100 | 4.96 | 3.32 | 3.08 | > 100 | > 100 | 15.8 | > 100 | 5.28 | 67.5 | > 100 |
| O=C(CC1(O)C(=O)Nc2ccc(Br)cc21)c1ccc(Cl)cc1 (configuration not stated) | > 100 | > 100 | 77.7 | > 100 | > 100 | > 100 | 98 | > 100 | > 100 | > 100 | – | – | – | – | – | – | – | – | – | – |
| CNc1nc(C)c(-c2nc(Nc3cccc(S(N)(=O)=O)c3)ncc2F)s1 | 0.273 | 6.79 | 0.147 | 15.9 | 0.278 | 24.4 | 0.232 | 12.1 | 0.505 | 0.185 | 0.0958 | 0.0406 | 0.044 | 0.0394 | 0.0319 | 0.0668 | 0.0657 | 0.048 | 0.035 | 0.0309 |
| C[C@@H]1COCCN1c1nc(-c2cnc(N)cc2C(F)F)nc(N2[C@H](C)COC[C@@H]2C)n1 | 4.28 | 1.69 | 0.571 | 21.4 | 11.7 | 17.4 | 8.05 | 12.4 | 11 | 9.15 | 0.174 | 0.116 | 0.0682 | 0.367 | 0.255 | 0.379 | 0.323 | 0.236 | 0.0575 | 0.295 |
| CC1CCC2(NC1)OC1CC3[C@@H]4CC=C5C=CCC[C@]5(C)C4CC[C@]3(C)C1C2C (some centres not stated) | 46 | 52.8 | 80.6 | 48.1 | 30 | 46.6 | 49 | 48.8 | 68.7 | 66.3 | – | – | – | – | – | – | – | – | – | – |
| O=C(Nc1ncc(Cc2ccccc2)s1)c1ccc2c(c1)OCCCO2 | – | > 100 | > 29.3 | > 100 | > 100 | > 100 | > 100 | > 100 | > 100 | > 100 | 0.428 | 0.396 | 0.613 | 2.01 | 0.838 | 0.254 | 1.61 | 0.376 | 1.42 | 0.478 |
| CCN(CC)c1ccc(N=C2C=CC(=O)c3ncccc32)c(C)c1 | > 100 | 22.9 | 28.9 | 10.5 | 24.5 | 5.95 | 15 | 10.8 | 30.4 | 6.14 | – | – | – | – | – | – | – | – | – | – |
| COc1ccc(Nc2ccnc(NCCNc3ccnc4cc(Cl)ccc34)n2)cc1 | 4.84 | 2.78 | 2.52 | 17.3 | 3.35 | 4.75 | 4.25 | 4.03 | 3.7 | 16.2 | 1.55 | 1.03 | 1.17 | 3.54 | 1.65 | 1.32 | 1.97 | 1.23 | 1.5 | 3.46 |
| O=S(=O)([O-])[O-].[Cl-].[NH2-].[NH2-].[NH2-].[NH2-].[Ru+3].c1ccc(-c2cccnc2)cc1 | > 100 | > 100 | > 100 | > 100 | > 100 | > 100 | > 100 | > 100 | > 100 | > 100 | > 100 | > 100 | 88.9 | > 100 | > 100 | > 100 | > 100 | > 100 | > 100 | > 100 |
| CN(C)c1ccc(/C=C/C(=O)C(C)(C)C)cc1Br | 58.7 | > 100 | 70.3 | 54.1 | 47.7 | 86.3 | 61.9 | 48.6 | > 100 | 71.7 | – | – | – | – | – | – | – | – | – | – |
| CC1CCc2c(sc3ncnc(N/N=C/c4ccc(Cl)c(Cl)c4)c23)C1 (configuration not stated) | > 100 | 43.2 | 61.6 | 58 | > 100 | > 100 | > 100 | > 100 | 43.8 | > 100 | – | – | – | – | – | – | – | – | – | – |
| CN(C)/C=C/c1nnnn1-c1ccc(Cl)cc1 | 18.5 | 36.7 | > 100 | 64.4 | > 100 | > 100 | > 100 | 80 | 84.8 | > 100 | 3.38 | 19 | 25.1 | 11.2 | 30.2 | 19.6 | 35.6 | 5.04 | 23.5 | 3.51 |
| CCc1ccc(-c2ccc(=O)n(-c3ccc(S(N)(=O)=O)cc3)n2)cc1 | 7.33 | 29.4 | 28 | > 100 | > 100 | > 46.6 | > 100 | > 100 | > 100 | > 90 | 0.759 | 0.992 | 2.96 | 11 | 6.73 | 0.297 | > 30.9 | 0.746 | > 100 | 0.884 |
| CN(C)C(=S)NN=C(c1ccccn1)c1ccccn1 | > 100 | 18.6 | > 81.6 | 27 | 18.2 | > 100 | 2.51 | 25.5 | 14.1 | 2.15 | – | 0.0421 | 14.3 | 0.0361 | 0.131 | – | < 0.012 | < 0.012 | < 0.0184 | < 0.01 |
| CC(=O)NC1=C(C)C(=O)c2c(nc3n2CCC3O)C1=O (configuration not stated) | 50.6 | > 100 | > 100 | 68.1 | > 100 | 44.3 | > 59.9 | > 100 | > 100 | 16.6 | – | – | – | – | – | – | – | – | – | – |
| Cc1cc2c(cc1C)[n+](=O)c(C(=O)/C=C/c1ccc(Cl)cc1)c(C)n2[O-] | 60.5 | 69.3 | 45.5 | 84.2 | 59.4 | > 100 | 89.9 | > 100 | 39.6 | 73.5 | – | – | – | – | – | – | – | – | – | – |
| CCN(CC)CC(=O)/C=C/c1ccc(C)cc1 | > 100 | 88.1 | 55.1 | 43.8 | 43 | > 100 | 46 | 46 | 39.8 | > 100 | – | – | – | – | – | – | – | – | – | – |
| CC(C)COC(=O)N1N=NC2C3OC(CC3=O)C21 (configuration not stated) | > 100 | > 100 | > 100 | > 100 | > 100 | > 100 | > 100 | > 100 | > 100 | > 100 | – | – | – | – | – | – | – | – | – | – |
| CC1=C(C(=O)Nc2ccc3[nH]ncc3c2)C(c2ccc(F)cc2)NC(=O)N1 (configuration not stated) | > 25 | > 25 | > 25 | > 25 | > 25 | > 25 | > 25 | > 25 | > 25 | > 25 | > 25 | > 25 | 6.51 | > 25 | > 25 | > 25 | > 25 | > 25 | > 17.5 | > 25 |
| Cc1ccccc1S(=O)(=O)N1[C@H](c2ccc(Cl)cc2)C(C(=O)N[C@@H](Cc2ccccc2)C(N)=O)=C[C@@H]1C(C)(C)C | 26.7 | 10 | 12 | 25.4 | 12 | 35.4 | 17.2 | 9.5 | 10.7 | 31.3 | 3.07 | 2.8 | 4.85 | 5.95 | 5.34 | 7.1 | 8.31 | 2.38 | 4.23 | 4.87 |
| CCN(CC)CCOc1ccc(Nc2ncc3cc(-c4c(Cl)cccc4Cl)c(=O)n(CCOC)c3n2)cc1 | 3.15 | 6.07 | 0.0454 | 3.95 | 8.97 | 18.2 | 4.58 | 6.1 | 0.179 | 5.41 | 0.921 | 0.375 | 0.00601 | 0.2 | 1.71 | 0.005 | 0.881 | 0.128 | 0.012 | 0.781 |
